Patent US20260226101A1, “PEPTIDE WITH ANTI-INFLAMMATORY AND ANTI-MICROBIAL ACTIVITY” (priority 2023, published 2026)
Ends that are not written are not given here.

Legend:
[1] = test system: LPS-induced phosphorylation of ERK1/2 and p38 MAPK; experiment: Western blot of MAPK pathway in LPS-stimulated RAW 264.7 cells; type: cell-based, murine
Description: As previously described, RAW264.7 cells were cultured and treated with LPS and synthetic peptides. After 18 h, cells were washed with PBS and lysed by incubating with RIPA lysis buffer cocktail (RIPA Lysis buffer, PMSF (1 mM), Protease inhibitor (1 μg/mL), phosphatase inhibitor (1 mM)) at […] for 30 minutes. Post incubation, cell lysate was collected by scraping cells and centrifuged at 12000 rpm for 15 min.
The protein concentration was determined using the Bicinchoninic acid kit method with bovine serum albumin as the standard (provided in the kit), according to the manufacturer's instructions. Protein bands were electrophoretically transferred to a polyvinylidene difluoride (PVDF) membrane via semi-dry transfer blotting, Membranes were blocked with 5% BSA in PBST (1% Tween 20 in PBS) at 20-24° C. for 1 h, then incubated with primary antibodies against IL-10, TLR 4, VEGF, P38 p-p38, ERK and p-ERK, the dilutions are listed in table 3., at 4° C. overnight. GAPDH was used as a protein-loading control. The membrane was washed 3 times (10 min. each) with Tris-buffered saline/Tween 20 (TBST) and then treated with horseradish peroxidase (HRP)-conjugated secondary antibody (1:10000) for 1 h. The membrane was washed again with TBST. The membrane-binding antibodies were visualized later with the ECL detection reagent and images were acquired in a Fusion SL Imaging System. Band density was analyzed by densitometry using Image J software.

[2] = test system: LPS-stimulated RAW 264.7 cells; experiment: RT-qPCR of cytokine mRNA in LPS-stimulated RAW 264.7 cells; type: cell-based, murine; details: vs LPS control
Description: Total cellular RNA was isolated using the RNA isoplus reagent (Takara Bioscience, India) following the manufacturer's instructions. RNA was quantified spectrophotometrically by absorption measurements at 260 and 280 nm using the nano drop system.
As per table 8, RNA and the reaction mixture were mixed in PCR a tube and incubated in a thermal cycler for 5 min at 65° C. in and then cooled immediately on ice. Further, in the same tube, the step 2 reaction mixture was added and further incubated in the thermal cycler as mentioned below.
Primers were designed using the Primer3 online tool. GAPDH was used as a normalizing control. The sequence of primers used is provided in below table 10. Real-Time PCR was performed according to the manufacturer's protocol using Takara biosystem's real-time PCR mix (Takara, Bio-India) with ROX as a passive reference dye using applied Biosystem's step-one Real-Time PCR system. The following PCR program was used for all real-time PCR-based experiments: initial denaturation at 95° C. for 2 minutes, followed by 40 cycles of denaturation at 95° C. for 15 seconds, annealing at 60° C. for 30 seconds, extension at 60° C. for 15 seconds.
For quantification of gene expression, CT values of each gene were normalized to GAPDH and calibrated to the appropriate control sample using the SYBR Green-based comparative CT method (2-ΔΔCt). Fold change was calculated using the formula 2-ΔΔct.

[3] = test system: Pseudomonas aeruginosa ATCC 9027; experiment: Time-kill assay; type: cell-based; details: P. aeruginosa
Description: The survival of bacteria, time kill efficacy assay of IS 111 was further evaluated for activity against bacterial strain mentioned above according to CLSI reference method, with slightly modification. MICs were determined by broth microdilution assay as described above. […] Test tubes of MHB without test compound IS 111 were used as vehicle controls. Overnight cultures of the bacterial strains at cell densities of approximately 1×10^8 CFU/ml were used to inoculate both test and control tubes. The standard tube dilution method was opted to evaluate the time-kill efficacy of bacteria. Bacterial inoculum (1 mL) was diluted by adding 9 mL sterile saline solution and serially diluted up to 10^−3. […] 100 μL incubated suspension was transferred on the agar plates and spread through the spreader. Colony counts were performed after 24 h incubation at 37° C. Plates with 10-300 colonies were used for these counts, and the kill rate was determined by plotting log 10 viable counts (CFU/ml) against time. Bactericidal activity was defined as a ≥3 log 10 decreases in CFU/ml of the initial microbial population, while bacteriostatic activity was defined was defined as a <3 log 10 decrease in CFU/ml. The assay was performed in triplicate [Olufunmiso O Olajuyigbe et al., 2015; Sutthiwan Thammawat et al., 2017]
The time-kill kinetics antibacterial study of the Peptide IS 111 was carried out to assess the killing rate of the compound within a given contact time. The survival of bacteria, time kill efficacy assay of IS 111 was further evaluated for activity against Escherichia coli ATCC 8739 and Staphylococcus aureus ATCC 6538, Pseudomonas aeruginosa ATCC 9027 and Klebsiella pneumoniae ATCC 700603 according to CLSI reference method, with slightly modification. MICs were determined by broth microdilution assay as described above. […] 10. Test tubes of MHB without test compound Peptide IS 111 were used as vehicle controls. Overnight cultures of the bacterial strains at cell densities of approximately 1×10^6 CFU/ml were used to inoculate both test and control tubes.
After each interval, ten-fold dilutions were prepared with normal saline, and 100 μL incubated suspension was transferred on the agar plates and spread through the spreader. Colony counts were performed after 24 h incubation at 37° C. Plates with 10-300 colonies were used for these counts, and the kill rate was determined by plotting log 10 viable counts (CFU/ml) against time. Bactericidal activity was defined as a ≥3 log 10 decrease in CFU/ml of the initial microbial population, while bacteriostatic activity was defined as a <3 log 10 decrease in CFU/ml. The assay was performed in triplicate. The proportion of cells surviving at 60 min was calculated, as was the mean and standard deviation. Proportions of surviving cells were compared using Student's 2-tailed t-test, assuming unequal variance and differences were considered significant where p≤0.05.

FAKKFAK [IS 111, Phe-Ala-Lys-Lys-Phe-Ala-Lys]
IL-10 levels (western blot) ([1]; IS111 treated cells): increased | Phosphorylation of ERK (p-ERK1/2) ([1]; LPS-induced, western blot): significantly inhibited | LPS-induced increase of p38 phosphorylation ([1]; concentration-dependent, western blot): markedly prevented | CCL2 mRNA expression ([2]; dose dependent): reduction | IL-1β mRNA expression [2]: dose dependently reduced | IL-6 mRNA expression [2]: significant reduction | TNF-α mRNA expression [2]: significant reduction | Viable count ([3]; 0.5 × MIC, 0 h): 6.3 ± 0.30 1 × 10^5 CFU/ml | Viable count ([3]; 0.5 × MIC, 1 h): 5.4 ± 0.18 1 × 10^5 CFU/ml | Viable count ([3]; 0.5 × MIC, 2 h): 4.9 ± 0.15 1 × 10^5 CFU/ml | Viable count ([3]; 0.5 × MIC, 3 h): 4.1 ± 0.20 1 × 10^5 CFU/ml | Viable count ([3]; 0.5 × MIC, 4 h): 3.5 ± 0.15 1 × 10^5 CFU/ml | Viable count ([3]; 0.5 × MIC, 5 h): 2.8 ± 0.23 1 × 10^5 CFU/ml | Viable count ([3]; 0.5 × MIC, 12 h): 2.4 ± 0.15 1 × 10^5 CFU/ml | Reduction in viability ([3]; 0.5×MIC (1.56 μg/ml), 24 h): 1 log 10 CFU/ml | Type of activity (bacteriostatic or bactericidal) ([3]; 0.5×MIC, 24 h): bacteriostatic | Viable count ([3]; 0.5×MIC, 24 h): 2.1 ± 0.25 1 × 10^5 CFU/ml | Viable count ([3]; 1 × MIC, 0 h): 6.4 ± 0.15 1 × 10^5 CFU/ml | Viable count ([3]; 1 × MIC, 1 h): 4.0 ± 0.30 1 × 10^5 CFU/ml | Viable count ([3]; 1 × MIC, 2 h): 1.9 ± 0.20 1 × 10^5 CFU/ml | Viable count ([3]; 1 × MIC, 3 h): 1.0 ± 0.08 1 × 10^5 CFU/ml | Viable count ([3]; 1 × MIC, 4 h): 0.5 ± 0.08 1 × 10^5 CFU/ml | Viable count ([3]; 1 × MIC, 5 h): 0.2 ± 0.05 1 × 10^5 CFU/ml | Viable count ([3]; 1 × MIC, 12 h): 0.0 1 × 10^5 CFU/ml | Viable count ([3]; 1 × MIC, 24 h): 0.0 1 × 10^5 CFU/ml | Time to bacteriostatic activity ([3]; 1×MIC (3.13 μg/ml)): ≤ 12 h | Viable count ([3]; 5 × MIC, 0 h): 6.4 ± 0.15 1 × 10^5 CFU/ml | Viable count ([3]; 5 × MIC, 1 h): 0.4 ± 0.10 1 × 10^5 CFU/ml | Viable count ([3]; 5 × MIC, 2 h): 0.0 1 × 10^5 CFU/ml | Viable count ([3]; 5 × MIC, 3 h): 0.0 1 × 10^5 CFU/ml | Viable count ([3]; 5 × MIC, 4 h): 0.0 1 × 10^5 CFU/ml | Viable count ([3]; 5 × MIC, 5 h): 0.0 1 × 10^5 CFU/ml | Viable count ([3]; 5 × MIC, 12 h): 0.0 1 × 10^5 CFU/ml | Viable count ([3]; 5 × MIC, 24 h): 0.0 1 × 10^5 CFU/ml
